Assay results taken from patent US8247377B2, “Non-steroidal glucocorticoid inhibitors and their use in treating inflammation, allergy and auto-immune conditions” (Glaxo Group Limited, priority 2006, dated 2012).

Each molecule was assayed against T1, glucocorticoid receptor (Homo sapiens, UniProt P04150) (assay: Glucocorticoid receptor binding assay (fluorescence polarisation)). Settings: competition with Alexa 555 fluorescently-labelled dexamethasone derivative, full length glucocorticoid receptor; read-out: glucocorticoid binding pIC50 (converted).
T1 construct: a partially purified full length glucocorticoid receptor
T1 sequence (P04150 1-777): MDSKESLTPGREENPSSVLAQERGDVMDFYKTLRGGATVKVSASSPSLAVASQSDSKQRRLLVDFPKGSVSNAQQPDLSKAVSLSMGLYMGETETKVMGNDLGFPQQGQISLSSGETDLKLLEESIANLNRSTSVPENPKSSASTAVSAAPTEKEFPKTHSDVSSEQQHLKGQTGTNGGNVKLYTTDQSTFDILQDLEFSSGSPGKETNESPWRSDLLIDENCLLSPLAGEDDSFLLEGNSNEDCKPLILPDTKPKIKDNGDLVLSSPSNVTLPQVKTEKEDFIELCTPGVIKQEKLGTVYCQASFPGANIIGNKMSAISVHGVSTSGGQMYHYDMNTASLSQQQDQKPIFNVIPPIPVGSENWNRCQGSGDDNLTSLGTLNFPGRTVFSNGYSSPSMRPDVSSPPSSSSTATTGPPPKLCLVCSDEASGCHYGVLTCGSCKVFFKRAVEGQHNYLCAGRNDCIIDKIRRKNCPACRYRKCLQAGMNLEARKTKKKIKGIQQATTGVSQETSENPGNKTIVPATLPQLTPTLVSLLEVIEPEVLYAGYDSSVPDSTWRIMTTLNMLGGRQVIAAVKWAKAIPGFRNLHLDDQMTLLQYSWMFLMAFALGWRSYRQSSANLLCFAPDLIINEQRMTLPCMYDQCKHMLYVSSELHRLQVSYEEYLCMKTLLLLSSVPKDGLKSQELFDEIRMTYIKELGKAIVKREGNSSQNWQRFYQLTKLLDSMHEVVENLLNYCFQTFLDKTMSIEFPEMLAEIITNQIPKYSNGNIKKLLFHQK
Procedure, shortened: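 Compounds in DMSO incubated with fluorescent dexamethasone and partially purified full-length GR plus stabilising buffer components, 2 hrs at room temperature in the dark. Displacement read as decrease in fluorescence polarisation; pIC50 estimated from dose-response curves.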
`CCN(CC(O)(CNC(=O)c1cnn(-c2ccc(F)cc2)c1N)C(F)(F)F)C(=O)c1c(F)cccc1C(F)(F)F` (racemic) [Example 23 (racemic), 5-amino-N-{2-[(ethyl{[2-fluoro-6-(trifluoromethyl)phenyl]carbonyl}amino)methyl]-3,3,3-trifluoro-2-hydroxypropyl}-1-(4-fluorophenyl)-1H-pyrazole-4-carboxamide] was tested, and the IC50 was ≤ 316 nM. `CCN(CC(O)(CNC(=O)c1cnn(-c2ccc(F)cc2)c1N)C(F)(F)F)C(=O)c1c(Cl)cccc1Br` (racemic) [Example 24 (racemic), 5-amino-N-(2-{[[(2-bromo-6-chlorophenyl)carbonyl](ethyl)amino]methyl}-3,3,3-trifluoro-2-hydroxypropyl)-1-(4-fluorophenyl)-1H-pyrazole-4-carboxamide] was tested, and the IC50 was ≤ 316 nM. For `CCN(CC(O)(CNC(=O)c1cnn(-c2ccc(F)cc2)c1N)C(F)(F)F)C(=O)c1c(Cl)cccc1OC(F)F` (racemic) [Example 25 (racemic), 5-amino-N-(2-{[({2-chloro-6-[(difluoromethyl)oxy]phenyl}carbonyl)(ethyl)amino]methyl}-3,3,3-trifluoro-2-hydroxypropyl)-1-(4-fluorophenyl)-1H-pyrazole-4-carboxamide], the IC50 was ≤ 316 nM. `CCN(CC(O)(CNC(=O)c1cnn(-c2ccc(F)cc2)c1N)C(F)(F)F)C(=O)c1c(OC(F)F)cccc1OC(F)F` (racemic) [Example 26 (racemic), 5-amino-N-(2-{[({2,6-bis[(difluoromethyl)oxy]phenyl}carbonyl)(ethyl)amino]methyl}-3,3,3-trifluoro-2-hydroxypropyl)-1-(4-fluorophenyl)-1H-pyrazole-4-carboxamide] was tested, and the IC50 was ≤ 316 nM. With `CCN(CC(O)(CNC(=O)c1cnn(-c2ccc(F)cc2)c1N)C(F)(F)F)C(=O)c1c(C(F)(F)F)cccc1C(F)(F)F` (racemic) [Example 27 (racemic), 5-amino-N-(2-{[{[2,6-bis(trifluoromethyl)phenyl]carbonyl}(ethyl)amino]methyl}-3,3,3-trifluoro-2-hydroxypropyl)-1-(4-fluorophenyl)-1H-pyrazole-4-carboxamide] the IC50 was ≤ 316 nM. For `Nc1c(C(=O)NCC(O)(CN(CCF)C(=O)c2c(Cl)cccc2Cl)C(F)(F)F)cnn1-c1ccc(F)cc1` (racemic) [Example 28 (racemic), 5-amino-N-(2-{[[(2,6-dichlorophenyl)carbonyl](2-fluoroethyl)amino]methyl}-3,3,3-trifluoro-2-hydroxypropyl)-1-(4-fluorophenyl)-1H-pyrazole-4-carboxamide], the IC50 was ≤ 316 nM. `Nc1c(C(=O)NCC(O)(CN(CCF)C(=O)c2c(Cl)cccc2Br)C(F)(F)F)cnn1-c1ccc(F)cc1` (racemic) [Example 30 (racemic), 5-amino-N-(2-{[[(2-bromo-6-chlorophenyl)carbonyl](2-fluoroethyl)amino]methyl}-3,3,3-trifluoro-2-hydroxypropyl)-1-(4-fluorophenyl)-1H-pyrazole-4-carboxamide] was tested, and the IC50 was ≤ 316 nM. `Nc1c(C(=O)NCC(O)(CN(CCF)C(=O)c2c(Cl)cccc2OC(F)F)C(F)(F)F)cnn1-c1ccc(F)cc1` (racemic) [Example 31 (racemic), 5-amino-N-(2-{[({2-chloro-6-[(difluoromethyl)oxy]phenyl}carbonyl)(2-fluoroethyl)amino]methyl}-3,3,3-trifluoro-2-hydroxypropyl)-1-(4-fluorophenyl)-1H-pyrazole-4-carboxamide] was tested, and the IC50 was ≤ 316 nM. For `CCN(CC(O)(CNC(=O)c1cnn(-c2ccc(F)c(F)c2)c1N)C(F)(F)F)C(=O)c1c(F)cccc1F` (racemic) [Example 33 (racemic), 5-amino-1-(3,4-difluorophenyl)-N-(2-{[[(2,6-difluorophenyl)carbonyl](ethyl)amino]methyl}-3,3,3-trifluoro-2-hydroxypropyl)-1H-pyrazole-4-carboxamide], the IC50 was ≤ 316 nM. `CCN(CC(O)(CNC(=O)c1cnn(-c2ccc(F)cc2F)c1N)C(F)(F)F)C(=O)c1c(F)cccc1F` (racemic) [Example 34 (racemic), 5-amino-1-(2,4-difluorophenyl)-N-(2-{[[(2,6-difluorophenyl)carbonyl](ethyl)amino]methyl}-3,3,3-trifluoro-2-hydroxypropyl)-1H-pyrazole-4-carboxamide] was tested, and the IC50 was ≤ 316 nM. With `CCN(CC(O)(CNC(=O)c1cnn(-c2cc(F)cc(F)c2)c1N)C(F)(F)F)C(=O)c1c(F)cccc1F` (racemic) [Example 35 (racemic), 5-amino-1-(3,5-difluorophenyl)-N-(2-{[[(2,6-difluorophenyl)carbonyl](ethyl)amino]methyl}-3,3,3-trifluoro-2-hydroxypropyl)-1H-pyrazole-4-carboxamide] the IC50 was ≤ 316 nM. With `CCN(CC(O)(CNC(=O)c1cnn(-c2cc(F)ccc2F)c1N)C(F)(F)F)C(=O)c1c(F)cccc1F` (racemic) [Example 36 (racemic), 5-amino-1-(2,5-difluorophenyl)-N-(2-{[[(2,6-difluorophenyl)carbonyl](ethyl)amino]methyl}-3,3,3-trifluoro-2-hydroxypropyl)-1H-pyrazole-4-carboxamide] the IC50 was ≤ 316 nM. `CCN(CC(O)(CNC(=O)c1cnn(-c2c(F)cccc2F)c1N)C(F)(F)F)C(=O)c1c(F)cccc1F` (racemic) [Example 37 (racemic), 5-amino-1-(2,6-difluorophenyl)-N-(2-{[[(2,6-difluorophenyl)carbonyl](ethyl)amino]methyl}-3,3,3-trifluoro-2-hydroxypropyl)-1H-pyrazole-4-carboxamide] was tested, and the IC50 was ≤ 316 nM. In the case of `CCN(CC(O)(CNC(=O)c1cnn(-c2cccc(F)c2)c1N)C(F)(F)F)C(=O)c1c(F)cccc1F` (racemic) [Example 38 (racemic), 5-amino-N-(2-{[[(2,6-difluorophenyl)carbonyl](ethyl)amino]methyl}-3,3,3-trifluoro-2-hydroxypropyl)-1-(3-fluorophenyl)-1H-pyrazole-4-carboxamide], the IC50 is reported as ≤ 316 nM. With `CCN(CC(O)(CNC(=O)c1cnn(-c2ccc(Cl)cc2)c1N)C(F)(F)F)C(=O)c1c(F)cccc1F` (racemic) [Example 39 (racemic), 5-amino-1-(4-chlorophenyl)-N-(2-{[[(2,6-difluorophenyl)carbonyl](ethyl)amino]methyl}-3,3,3-trifluoro-2-hydroxypropyl)-1H-pyrazole-4-carboxamide] the IC50 was ≤ 316 nM. In the case of `CCN(CC(O)(CNC(=O)c1cnn(-c2cccc(Cl)c2)c1N)C(F)(F)F)C(=O)c1c(F)cccc1F` (racemic) [Example 41 (racemic), 5-amino-1-(3-chlorophenyl)-N-(2-{[[(2,6-difluorophenyl)carbonyl](ethyl)amino]methyl}-3,3,3-trifluoro-2-hydroxypropyl)-1H-pyrazole-4-carboxamide], the IC50 is reported as ≤ 316 nM. With `CCN(CC(O)(CNC(=O)c1cnn(-c2ccccc2F)c1N)C(F)(F)F)C(=O)c1c(F)cccc1F` (racemic) [Example 42 (racemic), 5-amino-N-(2-{[[(2,6-difluorophenyl)carbonyl](ethyl)amino]methyl}-3,3,3-trifluoro-2-hydroxypropyl)-1-(2-fluorophenyl)-1H-pyrazole-4-carboxamide] the IC50 was ≤ 316 nM. For `Nc1c(C(=O)NCC(O)(CNC(=O)c2c(C(F)F)cccc2C(F)F)C(F)(F)F)cnn1-c1ccc(F)cc1` (racemic) [Example 43 (racemic), 5-Amino-N-{2-[({[2,6-bis(difluoromethyl)phenyl]carbonyl}amino)methyl]-3,3,3-trifluoro-2-hydroxypropyl}-1-(4-fluorophenyl)-1H-pyrazole-4-carboxamide], the IC50 was ≤ 316 nM. `Nc1c(C(=O)NCC(O)(CNC(=O)c2c(Br)cccc2C(F)(F)F)C(F)(F)F)cnn1-c1ccc(F)cc1` (racemic) [Example 45 (racemic), 5-Amino-N-{2-[({[2-bromo-6-(trifluoromethyl)phenyl]carbonyl}amino)methyl]-3,3,3-trifluoro-2-hydroxypropyl}-1-(4-fluorophenyl)-1H-pyrazole-4-carboxamide] was tested, and the IC50 was ≤ 316 nM. With `Nc1c(C(=O)NCC(O)(CNC(=O)c2c(Cl)cccc2Cl)C(F)(F)F)cnn1-c1ccc(F)cc1` (single isomer, unassigned) [Example 3 Enantiomer 1, 5-Amino-N-[2-({[(2,6-dichlorophenyl)carbonyl]amino}methyl)-3,3,3-trifluoro-2-hydroxypropyl]-1-(4-fluorophenyl)-1H-pyrazole-4-carboxamide] the IC50 was ≤ 316 nM. `CCN(CC(O)(CNC(=O)c1cnn(-c2ccc(F)cc2)c1N)C(F)(F)F)C(=O)c1ccccc1S(C)(=O)=O` (single isomer, unassigned) [Example 10 Enantiomer 1, 5-Amino-N-{2-[(ethyl{[2-(methylsulfonyl)phenyl]carbonyl}amino)methyl]-3,3,3-trifluoro-2-hydroxypropyl}-1-(4-fluorophenyl)-1H-pyrazole-4-carboxamide] was tested, and the IC50 was ≤ 316 nM.
